Data: patent publication US20220304307A1, “SYNERGISTIC MIXTURES FOR ARTHROPOD TOXICITY AND REPELLENCY” (University of Florida Research Foundation, Incorporated, priority 2019, published 2022)
Read-outs that look alike come from different tables or passages of the source.

How the values were obtained:
[1] = system: pyrethroid-resistant Puerto Rico (PR) strain of Ae. aegypti; assay: Glass tube spatial repellency assay, resistant strain; assay type: in vivo, Aedes aegypti; set-up: 1 h EC50-PR (repellency): unit not given here; settings: compound alone; for RR (PR EC50/OR EC50): repellency resistance ratio; for 1 h EC50-PR (repellency): PR strain
Protocol: (§1) The following assay was conducted according to the procedures of Jiang et al., 2019 (Jiang S., Yang L, and Bloomquist J (2019) High-throughput screening method for evaluating spatial repellency and vapor toxicity to mosquitoes. Med. Vet. Entomol.). For assessing behavioral repellency (FIG. 1), sixteen female Aedes aegypti mosquitoes were transferred to a glass tube (12.5 cm long, 2.5 cm outer diameter) with the ends covered with netting. Metofluthrin, bifenthrin, permethrin, pyrethrum, transfluthrin, deltamethrin, esfenvalerate, metofluthrin acid, bifenthrin acid, phenothrin acid, transchryanthemic acid, transfluthrin acid, deltamethrin acid, and fenvalerate acid were each dissolved in 1 mL of acetone and serial dilutions ranging from 30-0.01 μg/ml were made. Circular filter papers (5 cm^2) were saturated with 50 μL of each concentration and allowed 10 min for solvent evaporation. The filter papers were then placed in clear conical polypropylene caps and fixed to the end of the glass tubes. The netting prevented mosquito contact with the filter paper. Tubes were then aligned with a mark denoting the midline and the proportion of mosquitoes on the chemically treated side was scored at 15, 30, and 60 min. At the end of the test, the tube was placed in a cage and the ability of the mosquitoes to fly out of the tube was assessed for 30 min. […] This post-test evaluated whether any non-responding mosquitoes (not repelled) was due to intoxication or disorientation from the test chemical. For vapor toxicity, the assay was identical, except that mosquitoes were kept in the tube for 24 hr without the post-test at 1 hr, and the mortality was recorded at 24 hr.
EC50 values were calculated from non-linear regression to a four parameter logistic equation (Prism, GraphPad Software, San Diego, Calif.) of the curves shown in FIG. 4. RR=resistance ratio. NA=data not yet available.

[2] = system: Orlando insecticide-susceptible strain of Ae. aegypti (female mosquitoes); assay: Glass tube spatial repellency assay; assay type: in vivo, Aedes aegypti; set-up: 1 h EC50-OR (repellency): unit not given here; settings: for repellency EC50 (+TFA): applied as mixture with TFA (50 μg/cm^2); for repellency EC50 (+TFA) / repellency EC50 / 1 h EC50-OR (repellency): 1 hr; for repellency EC50 / 1 h EC50-OR (repellency): compound alone; for synergist ratio SR (EC50 compound alone/EC50 compound+TFA): repellency, TFA 50 μg/cm^2 as mixture; for 15 min repellency ratio / 30 min repellency ratio / 1 hr repellency ratio: horizontal tube, 0.5=0% repellency, 0=100% repellency; for 1 h EC50-OR (repellency): OR strain; for mortality in repellency screening: 100 μg/cm^2, 1 hr exposure
Protocol: as §1

female Ae. aegypti = assay: Human arm bite protection assay; assay type: in vivo, Aedes aegypti
Protocol: A human bite protection assay was performed according to see if the repellency observed in glass tubes extended to bite protection. The assay was run in accordance with that of Tsikolia et al. (Tsikolia M, Bernier UR, Coy M, Chalaire K, Becnel J, Agramonte N, Tabanca N, Wedge D, Clark G, Linthicum K, Swale D, and J. R. Bloomquist J (2013) Insecticidal and fungicidal properties of novel trifluoromethylphenyl amides. Pestic. Biochem. Physiol. 107, 138-147). Treated cloth patches were worn by human volunteers and the number of blood fed mosquitoes was determined after 1 min spent in a cage with 500 (±10%) female Ae. aegypti. Minimum Effective Dosage (MED in mg/cm^2) is the minimum amount required to prevent 99% of bites in three human volunteers (UF IRB #201602334). Synergist ratio (SR)=MED chemical alone/MED chemical+TFA (0.047 mg/cm^2) or TCA (0.094 mg/cm^2).

[3] = system: insecticide-susceptible Aedes aegypti (Orlando strain) females; assay: Glass tube vapor toxicity assay (24 hr mortality); settings: for 24 hr mort (%): horizontal tube; for mortality at 100 µg/cm2: Aedes aegypti; for LC50 (24 h vapor toxicity): pyrethroid alone
Protocol: as §1
Synergism ratio (SR)=LC50 pyrethroid/LC50 pyrethroid+EO.

[4] = system: pyrethroid-resistant Puerto Rico strain of Ae. aegypti; assay: Glass tube vapor toxicity assay, resistant strain; assay type: in vivo, Aedes aegypti; settings: for resistance ratio RR, vapor toxicity: pyrethroid alone, Puerto Rico vs Orlando
Description: The netting prevented mosquito contact with the filter paper.
The vapor toxicity of metofluthrin alone and in combination with citronella oil (CO) on susceptible Orlando and pyrethroid-resistant Puerto Rico strains of Ae. aegypti was investigated. The results are provided in Table 10 and in FIGS. 26 and 27. […] Synergism ratio (SR)=LC50 metofluthrin/LC50 metofluthrin+citronella. […] Resistance ratio (RR)=LC50 metofluthrin[…] on Puerto Rico/LC50 metofluthrin on Orlando.
Next, the vapor toxicity of empenthrin applied to two strains of Aedes aegypti, the pyrethroid-susceptible Orlando and pyrethroid-resistant Puerto Rico strain, was investigated. Empenthrin was applied alone and in combination with citronella oil (100 μg/cm^2, a nontoxic exposure). The RR for empenthrin alone was 5.7-fold.

[5] = system: OR (susceptible) strain of Ae. aegypti antenna; assay: Electroantennography (EAG) responses, OR strain; set-up: species or system Aedes aegypti; settings: 10 mg odorant, air puff
Description: (§2) Electroantennography (EAG) responses of OR (susceptible) and PR (resistant) strains of Ae. Aegypti were then obtained for TF, TFA, and TCA (FIGS. 10A and 10B). In these experiments, an air puff stimulus with odorant was blown over an antenna suspended between 2 electrodes and represented the summed electrical response of all the chemo-receptive hairs. All compounds gave responses, with TF the largest (FIG. 10A).

[6] = system: PR (resistant) strain of Ae. aegypti antenna; assay: Electroantennography (EAG) responses, PR strain; set-up: species or system Aedes aegypti; settings: 10 mg odorant, air puff
Description: as §2

Row | Compound | RR (PR EC50/OR EC50) [1] | 15 min repellency ratio ([2]; 10 μg/cm^2) | 30 min repellency ratio ([2]; 10 μg/cm^2) | 1 hr repellency ratio ([2]; 10 μg/cm^2) | 15 min repellency ratio ([2]; 100 μg/cm^2) | 30 min repellency ratio ([2]; 100 μg/cm^2) | 1 hr repellency ratio ([2]; 100 μg/cm^2) | 24 hr mort (%) ([3]; 10 μg/cm^2) | 24 hr mort (%) ([3]; 100 μg/cm^2) | other results
1 | CC(C)=C[C@@H]1[C@@H](C(=O)O)C1(C)C (relative stereo) [TCA, 1-R-trans-chrysanthemic acid] | 1.9 |  |  |  |  |  |  |  |  | repellency ([2]; TCA alone at 10 μg/cm^2): 25%; repellency EC50 (+TFA) [2]: 1.3 μg/cm^2; repellency EC50 [2]: 20 μg/cm^2; synergist ratio SR (EC50 compound alone/EC50 compound+TFA) [2]: 15; MED values Female 10 (female Ae. aegypti; as E30, volunteer one): 0.375 mg/cm^2; MED values Female 9 (female Ae. aegypti; as E30, volunteer two): 0.187 mg/cm^2; MED Mean (female Ae. aegypti; mean of three human volunteers): 0.312 mg/cm^2; MED values Male 4 (female Ae. aegypti; minimum amount preventing 99% of bites, treated cloth patch, 1 min in cage, mixtures with TFA 0.047 or TCA 0.094 mg/cm^2): 0.375 mg/cm^2
2 | O=Cc1cccc(O)c1 [3-hydroxybenzaldehyde] |  | 0.56 | 0.53 | 0.56 | 0.41 | 0.41 | 0.56 | 21.9 | 15.6 | 
3 | CC(C)(C)c1cccc(C=O)c1 [3-tert-butylbenzaldehyde] |  | 0.31 | 0.25 | 0.31 |  |  |  | 6.3 | 81.3 | mortality at 100 µg/cm2 ([3]; 0.25 h, read-out: 15 min % mortality): 96.9%; mortality at 100 µg/cm2 ([3]; 0.5 h, read-out: 30 min % mortality): 100%; mortality at 100 µg/cm2 ([3]; 1 h, read-out: 1 hr % mortality): 100%
4 | C=Cc1cccc(C=O)c1 [3-vinylbenzaldehyde] |  | 0.50 | 0.50 | 0.31 | 0.19 | 0.25 | 0.19 | 100.0 | 6.3 | 
5 | CC1(C)C(C=C(Cl)C(F)(F)F)C1C(=O)O (stereo not drawn) [BFA, bifenthrin acid] | 0.8 |  |  |  |  |  |  |  |  | 1 h EC50-PR (repellency) [1]: 11; 1 h EC50-OR (repellency) [2]: 14
6 | CC(C)[C@H](C(=O)O)c1ccc(Cl)cc1 [FVA, fenvalerate acid] | 1.7 |  |  |  |  |  |  |  |  | 
7 | CC=CC1C(C(=O)O)C1(C)C (stereo not drawn) [MFA, metofluthrin acid] | 1.3 |  |  |  |  |  |  |  |  | 1 h EC50-PR (repellency) [1]: 18; 1 h EC50-OR (repellency) [2]: 14
8 | C/C=C/C1C(C(=O)OCc2c(F)c(F)c(COC)c(F)c2F)C1(C)C (stereo not drawn) [Metofluthrin, reference compound] | 60 |  |  |  |  |  |  |  |  | mortality in repellency screening [2]: significant mortality; synergism ratio of vapor toxicity, +citronella ([3]; in vivo): 7.6; LC50 (24 h vapor toxicity) [3]: 0.84 μg/cm^2; LC50 +citronella ([3]; with citronella, 24 h): 0.11 μg/cm^2; resistance ratio RR, vapor toxicity, +citronella oil ([4]; LC50 metofluthrin+CO on Puerto Rico/LC50 metofluthrin on Orlando): 7.3; resistance ratio RR, vapor toxicity [4]: 50.7
9 | CC(C)=CC1C(C(=O)O)C1(C)C (stereo not drawn) [PhenA, phenothrin acid] | 0.8 |  |  |  |  |  |  |  |  | 
10 | CC1(C)[C@H](C=C(Cl)Cl)[C@H]1C(=O)OCc1c(F)c(F)cc(F)c1F [Transfluthrin, reference compound] | 4.7 |  |  |  |  |  |  |  |  | EAG response [5]: largest; EAG response in PR strain relative to OR [6]: reduced; mortality in repellency screening [2]: significant mortality; repellency EC50 (+TFA) [2]: 0.11 μg/cm^2; synergism of repellency with citronella ([2]; citronella at its EC20 (20 μg/cm^2)): not; repellency EC50 [2]: 0.5 μg/cm^2; synergist ratio SR (EC50 compound alone/EC50 compound+TFA) [2]: about 5; synergism ratio of vapor toxicity, +TFA ([3]; TFA 50 μg/cm^2): 2.3; LC50 (24 h vapor toxicity) [3]: 0.16 μg/cm^2; LC50 +TFA ([3]; with TFA (50 μg/cm^2), 24 h): 0.07 μg/cm^2
11 | O=Cc1cccc(-c2ccccc2)c1 [biphenyl-3-carboxaldehyde] |  | 0.44 | 0.38 | 0.38 | 0.44 | 0.31 | 0.19 | 50.0 | 6.3 | 
12 | C#CC(OC(=O)C1C(C=C(C)C)C1(C)C)/C(C)=C/CC (stereo not drawn) [empenthrin] |  |  |  |  |  |  |  |  |  | effect of citronella oil on resistance to vapor toxicity ([4]; citronella oil 100 μg/cm^2, Puerto Rico strain): reversed resistance; resistance ratio RR, vapor toxicity [4]: 5.7
13 | O=Cc1cccc(C=O)c1 [isophthalaldehdye] |  | 0.41 | 0.41 | 0.41 | 0.03 | 0.09 | 0.06 | 40.6 | 87.5 | 
14 | trifluoromethoxybenzaldehyde |  | 0.38 | 0.38 | 0.44 | 0.31 | 0.31 | 0.50 | 6.3 | 0.0 | 
15 | α, α, α-trifluoromethyltolualdehyde |  | 0.38 | 0.44 | 0.31 | 0.38 | 0.50 | 0.63 | 0.0 | 0.0 | 
